These are literature values, as cited in patent publication US6166008A, “Treatment of schizophrenia with ampakines and neuroleptics” (Cortex Pharmaceuticals, Inc., priority 1998, dated 2000).

The series concerns fast synaptic potentials in hippocampus. The note with it: metabolite of aniracetam; cited from earlier work.

For `COc1ccc(C(=O)NCCCC(=O)O)cc1` [anisoyl-GABA], the aniracetam-like effects result was “only weak aniracetam-like effects”.
